Measurements taken from patent US20200368234A1, “PHOTORECEPTOR GENE MODULATOR PHOTOREGULIN 3 FOR TREATMENT OF RETINAL DISEASE” (University of Washington, priority 2017, published 2020).
Entries after “also recorded” stand apart in the source; their conditions may differ.

Experiments:
[1] = target: T1, Nr2e3-NCOR dimer complex (Homo sapiens, UniProt Q9Y5X4); conditions: PubChem Assay IDs 602229, 624378, 624394, 651849; cited from earlier work
T1 construct: expressed in transfected cells; host or cells: CHO-S cells
T1 sequence (Q9Y5X4 whole entry, one chain of several): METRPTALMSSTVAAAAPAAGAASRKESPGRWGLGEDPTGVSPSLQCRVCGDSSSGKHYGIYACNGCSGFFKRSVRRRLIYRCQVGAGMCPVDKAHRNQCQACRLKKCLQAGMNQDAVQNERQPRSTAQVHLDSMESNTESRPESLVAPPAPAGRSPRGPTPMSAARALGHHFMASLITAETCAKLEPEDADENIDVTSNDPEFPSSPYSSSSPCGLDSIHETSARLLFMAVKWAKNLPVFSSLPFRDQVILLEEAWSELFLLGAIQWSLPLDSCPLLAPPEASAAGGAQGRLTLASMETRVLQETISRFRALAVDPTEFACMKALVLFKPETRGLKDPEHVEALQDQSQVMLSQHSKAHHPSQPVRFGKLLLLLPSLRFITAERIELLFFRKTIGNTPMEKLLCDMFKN

[2] = test system: rod photoreceptor genes; assay: RNA sequencing of retinas of wild type mice after intraperitoneal PR3; assay type: in vivo; conditions: 10 mg/kg i.p. at P12, retinas collected 24 h later
Experimental: Nr2e3 signaling is important for rod photoreceptor cell fate, development and maturation, and maintenance of expression. To determine the effect of PR3 treatment on gene expression in postmitotic retinal cells, wild type mice were systemically treated (intraperitoneal injection) with PR3 or vehicle at P12. At P13, 24 h after the injection, the retinas were collected for global transcriptome analysis by RNA sequencing.
Photoregulin3 was identified by searching previous small molecule screens with SciFinder and PubChem for Nr2e3 interacting molecules. It was initially obtained from ChemDiv and then synthesized and purified in large quantities in the lab after initial screening. For in vivo experiments, mice were injected intraperitoneally with PR3 dissolved in DMSO at 10 mg/kg.
RNA from retinas was isolated using TRIzol (Invitrogen) and total RNA integrity was checking using an Agilent 4200 TapeStation and quantified using a Trinean DropSense96 spectrophotometer. RNA-seq libraries were prepared from total RNA using the TruSeq RNA Sample Prep kit (Illumina) and a Sciclone NGSx Workstation (PerkinElmer). Library size distributions were validated using an Agilent 4200 TapeStation. Additional Library quality control, blending of pooled indexed libraries, and cluster optimization were performed using Life Technologies' Invitrogen Qubit Fluorometer. RNA-seq libraries were pooled (4-plex) and clustered onto a flow cell lane. Sequencing was performed using an Illumina HiSeq 2500 in rapid mode employing a paired-end, 50 base read length (PE50) sequencing strategy.

[3] = test system: Rho^P23H mice; assay: Photoreceptor degeneration in Rho^P23H mice: histology and qPCR at P21; assay type: in vivo, mouse; conditions: 10 mg/kg i.p. from P12-P14 until P21, vs DMSO vehicle
Experimental: FIG. 3A illustrates the timeline of photoreceptor degeneration in the Rhodopsin^P23H mouse and experimental design.
To determine whether photoreceptor degeneration can be prevented, Rho^P23H mice were treated with PR3 or vehicle from P12-P14 until P21, during the period of rod photoreceptor death (FIG. 3A). At P21, visual function was assessed with ERGs and euthanized the mice for histological and qPCR analyses. At P21, control Rho^P23H mice had only 2-3 rows of photoreceptors remaining in their ONL (FIGS. 3B and 3C). Rods were sparse and there were few remaining cones (S Opsin+ and Cone Arrestin+ photoreceptors). Control Rho^P23H mice had minimal scotopic and photopic b-wave amplitudes by ERG analysis (FIGS. 4A, 4B, 4D, and 4E). […]
Photoregulin3 was identified by searching previous small molecule screens with SciFinder and PubChem for Nr2e3 interacting molecules. It was initially obtained from ChemDiv and then synthesized and purified in large quantities in the lab after initial screening. […]
RNA from retinas was isolated using TRIzol (Invitrogen) and cDNA was synthesized using the iScript cDNA synthesis kit (Bio-Rad). SSO Fast (Bio-Rad) was used for quantitative real-time PCR. For analysis, values were normalized to Gapdh (ΔCt) and ΔΔCt between DMSO and compound-treated samples was expressed as percent of DMSO treated controls (100*2^ΔΔCt). […]

SMILES: COc1cc2nc(CN3CC=C(c4ccccc4)CC3)nc(O)c2cc1OC [PR3]
- modulation of Nr2e3 in luciferase-based assay [1]: identified as a chemical modulator of Nr2e3
- cone gene expression (RNA sequencing) [2]: large and global increases in cone gene expression were not observed
- toxicity to retinal cells (cell death and cell stress genes, RNA sequencing) [2]: not toxic to retinal cells
- rod photoreceptor gene expression (RNA sequencing) ([2]; 10 mg/kg): robust reduction in rod photoreceptor genes; also recorded: decrease in most rod photoreceptor-specific transcripts
- expression of photoreceptor genes in whole retinas (qPCR) [3]: greater expression of photoreceptor genes Recoverin, Rhodopsin, and S Opsin; also recorded: more expression of Recoverin and Rhodopsin
- rows of photoreceptors (DAPI+ cells) in the ONL [3]: greater survival of photoreceptors; also recorded: several rows of rod and cone photoreceptors in the ONL
